From patent US5665765A, “5,6,7,8-tetrahydronaphtho[2,3-b]furan and indano[5,6-b]furan amine compounds” (Adir et Compagnie, priority 1995, dated 1997)
Read-outs that look alike come from different tables or passages of the source.

How the values were obtained:
[1] = target: T1, human dopamine D3 receptor (Homo sapiens, UniProt P35462); experiment: binding to human D3 receptors expressed in CHO cells ([125I]-iodosulpride)
T1 construct: expressed in transfected cells; membranes
Method: (§1) STUDY OF THE BINDING OF THE COMPOUNDS OF THE INVENTION TO HUMAN D2 AND D3 RECEPTORS EXPRESSED IN CHO CELLS
(§2) CHO (Chinese Hamster Ovary) cells were transfected in a stable manner by the gene coding for the human dopamine D2 or D3 receptor according to methods known from the literature. The native cells are deficient in the enzyme DHFR (DiHydroFolate Reductase). Those cells are cultured in a vessel at 37° C. in a humid atmosphere of 5% CO2 : 95% air. The transfections were carried out using Lipofectine (Gibco). The CHO cells, cotransfected with the human D2 receptor and the gene for resistance to phleomycin, were selected for their resistance to the presence of that antibiotic in the culture medium. The cells transfected with the human D3 receptor were selected in a medium lacking in hypoxanthine/thymidine, in the presence of methotrexate. The compositions of the culture media used are, for CHO--D2 : DMEM (Dulbecco's Modified Eagle Medium) supplemented with 10% foetal calf serum and hypoxanthine/thymidine and, for CHO--D3 : DMEM supplemented with 10% dialysed foetal calf serum. The confluent cells are harvested and the membranes are then prepared.
After a few minutes in the presence of 0.2% trypsin, the cells are recovered and centrifuged at 2000 g for 5 minutes. The cell mass, resuspended in […] tris-HCl buffer, pH 7.5, containing 5 mM MgSO4, is then […] over Polytron®. The homogenate is then centrifuged at 50 000 g for 15 minutes, and the mass is resuspended by gentle sonication in an incubation buffer of the following composition: 50 mM tris-HCl, pH 7.5, containing 120 mM NaCl, 5 mM KCl, 2 mM CaCl2 and 5 mM MgCl2. The membranes are then divided into aliquots and preserved at -80° C. until the day of the experiment.
The incubation is carried out in polypropylene tubes at a final volume of 400 μl containing:
100 μl of [^125 I]-iodosulpride (Amersham) at 0.1 and 0.2 nM for the D2 and D3 receptors respectively.
100 μl of buffer (total tubes)
100 μl of raclopride 10 μM (non-specific binding)
200 μl of membrane preparation containing the D2 or D3 receptors, in a buffer to which
0.2% BSA (bovine serum albumin) has been added.
(§3) The ranges of concentration of each compound include at least 7 points determined in triplicate; each experiment is repeated at least twice.
The incubation, which lasts 30 minutes at 30° C., is terminated by rapid filtration in a Brandle apparatus, followed by three consecutive washes with tris-HCl buffer, pH 7.4, containing 120 m M NaCl. The filters recovered are then counted with a gamma counter.
The IC50, which represents the concentration that gives a 50% inhibition of the binding of the radioligand, is calculated by non-linear regression (Prism Graph method). The Ki value is derived from the formula Ki=IC50 (1+L/Kd) where L is the concentration of [^125 I]-iodosulpride used in the experiment and Kd its dissociation constant. The results are expressed in the form of pKi (pKi=-logKi).

[2] = target: T2, human dopamine D2 receptor (Homo sapiens, UniProt P14416); experiment: binding to human D2 receptors expressed in CHO cells ([125I]-iodosulpride); details: radioligand dissociation constant used in Ki formula
T2 construct: expressed in transfected cells; membranes
T2 sequence (P14416 whole entry): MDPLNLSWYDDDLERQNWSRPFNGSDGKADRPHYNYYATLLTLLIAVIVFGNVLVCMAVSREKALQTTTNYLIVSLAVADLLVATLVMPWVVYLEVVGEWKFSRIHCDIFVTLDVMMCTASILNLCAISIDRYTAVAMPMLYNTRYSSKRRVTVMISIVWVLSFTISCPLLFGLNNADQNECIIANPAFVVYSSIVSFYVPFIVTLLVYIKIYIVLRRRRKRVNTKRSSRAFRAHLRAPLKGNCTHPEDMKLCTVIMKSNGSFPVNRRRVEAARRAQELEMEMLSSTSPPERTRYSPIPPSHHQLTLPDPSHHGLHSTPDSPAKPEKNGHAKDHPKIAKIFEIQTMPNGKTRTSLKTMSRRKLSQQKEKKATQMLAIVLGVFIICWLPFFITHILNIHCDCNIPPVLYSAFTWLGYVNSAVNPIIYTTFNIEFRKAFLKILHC
Method: as §1
as §2, with “The compositions of the culture media used are, for CHO--D2 : DMEM (Dulbecco's Modified Eagle Medium) supplemented with 10% foetal calf serum and hypoxanthine/thymidine and, for CHO--D3 : DMEM supplemented with 10% dialysed foetal calf serum. The confluent cells are harvested and the membranes are then prepared.” left out
as §3
The incubation, which lasts 30 minutes at 30° C., is terminated by rapid filtration in a Brandle apparatus, followed by three consecutive washes with tris-HCl buffer, pH 7.4, containing 120 m M NaCl. The filters recovered are then counted with a gamma counter. […]

[3] = [125I]-iodosulpride 0.2 nM, CHO cell membranes, 30 min at 30° C., pKi=-logKi, read-out: pKi (human D3) (converted)

T1 sequence (P35462 whole entry): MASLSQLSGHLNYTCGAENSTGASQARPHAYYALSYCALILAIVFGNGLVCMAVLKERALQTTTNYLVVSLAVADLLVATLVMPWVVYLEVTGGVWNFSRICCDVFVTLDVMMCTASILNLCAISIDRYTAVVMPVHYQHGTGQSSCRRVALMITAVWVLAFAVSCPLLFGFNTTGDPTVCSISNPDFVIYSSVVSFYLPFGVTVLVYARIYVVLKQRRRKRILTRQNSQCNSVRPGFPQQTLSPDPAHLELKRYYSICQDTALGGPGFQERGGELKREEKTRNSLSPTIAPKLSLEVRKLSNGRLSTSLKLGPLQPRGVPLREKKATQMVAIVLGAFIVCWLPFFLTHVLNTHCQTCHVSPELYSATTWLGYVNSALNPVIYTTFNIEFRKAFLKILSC

Compound | Ki [1, 3] [nM] | also measured
NC1CCc2cc3c(cc2C1)OCC3 (stereo not drawn) | 158 | –
NC1CCc2cc3ccoc3cc2C1 (stereo not drawn) | 389 | –
FC(F)(F)CNC1CCc2cc3c(cc2C1)OCC3 (stereo not drawn) | 10000 | –
CN(C)C1CCc2cc3c(cc2C1)OCC3 (stereo not drawn) | 209 | –
CN(CC1CCCCC1)C1CCc2cc3c(cc2C1)OCC3 (stereo not drawn) | 151 | –
CCCN[C@@H]1CCc2c(OC)cccc2[C@@H]1C [AJ 76, [cis(+)-1S,2R]-5-methoxy-1-methyl-2-n-propylaminotetralin] | – | Ki [1]: 69.2 nM; selectivity for the D3 receptor compared with the D2 receptor ([1]; human D3 vs D2 binding): 2
[^125 I]-iodosulpride | – | Kd ([1]; radioligand dissociation constant used in Ki formula): 1.31 nM; Kd [2]: 0.5 nM

Now from value to compound, other results behind:

Ki [1, 3] [nM] | Compound | also measured
759 | CCOCCNC1CCc2cc3c(cc2C1)OCC3 (stereo not drawn) | –
1170 | c1ccc(CNC2CCc3cc4c(cc3C2)OCC4)cc1 (stereo not drawn) | –
2.24 | CCCN(CCc1ccc(O)cc1)C1CCc2cc3c(cc2C1)OCC3 (racemic) [Example 3, (7RS)-7-{N-[2-(4-hydroxyphenyl)ethyl]-N-propylamino}-5,6,7,8-tetrahydronaphtho[2,3-b]2,3-dihydrofuran] | –
1.15 | CCCN(CCc1ccc2c(c1)CC(=O)N2)C1CCc2cc3c(cc2C1)OCC3 (racemic) [Example 6, (7RS)-7-{N-[2-((3H)-indol-2-on-5-yl)ethyl]-N-propylamino}-5,6,7,8-tetrahydronaphtho[2,3-b]2,3-dihydrofuran] | –
3.47 | CCCN(CCCc1ccc2c(c1)CC(=O)N2)C1CCc2cc3c(cc2C1)OCC3 (racemic) [Example 7, (7RS)-7-{N-[3-((3H)-indol-2-on-5-yl)propyl]-N-propylamino}-5,6,7,8-tetrahydronaphtho[2,3-b]2,3-dihydrofuran] | –
3.55 | CCCN(CCCc1ccc(NC(C)=O)cc1)C1CCc2cc3c(cc2C1)OCC3 (racemic) [Example 13] | –
